Experimental data as given in ChEMBL document CHEMBL5214978, “Identification of 1,4-Benzodiazepine-2,5-dione Derivatives as Potential Protein Synthesis Inhibitors with Highly Potent Anticancer Activity” (J Med Chem, 2022).

Experiments:
LOX IMVI = assay: Anticancer activity against human LOX IMVI cells assessed as cell growth inhibition measured after 48 hrs by SRB assay; type: functional
HCT-116 = assay: Anticancer activity against human HCT-116 cells assessed as cell growth inhibition measured after 48 hrs by SRB assay; type: functional
A549 = assay: Anticancer activity against human A549 cells assessed as cell growth inhibition measured after 48 hrs by SRB assay; type: functional
786-0 = assay: Anticancer activity against human 786-0 cells assessed as cell growth inhibition measured after 48 hrs by SRB assay; type: functional
SF-295 = assay: Anticancer activity against human SF-295 cells assessed as cell growth inhibition measured after 48 hrs by SRB assay; type: functional
[1] = system: Panel NCI-60 (60 carcinoma cell lines); assay: Anticancer activity against human Panel NCI-60 (60 carcinoma cell lines) line assessed as cell growth inhibition measured after 48 hrs by SRB assay; type: functional
NCI-H661 = assay: Anticancer activity against human NCI-H661 cells assessed as cell growth inhibition; type: functional, cell-based
A498 = assay: Anticancer activity against human A498 cells assessed as cell growth inhibition; type: functional, cell-based
[2] = target: T1, Nuclear receptor subfamily 6 group A member 1 (Homo sapiens, UniProt Q15406); assay: Antagonist activity at GCNF (unknown origin) by luciferase reporter gene assay
T1 sequence (Q15406 whole entry): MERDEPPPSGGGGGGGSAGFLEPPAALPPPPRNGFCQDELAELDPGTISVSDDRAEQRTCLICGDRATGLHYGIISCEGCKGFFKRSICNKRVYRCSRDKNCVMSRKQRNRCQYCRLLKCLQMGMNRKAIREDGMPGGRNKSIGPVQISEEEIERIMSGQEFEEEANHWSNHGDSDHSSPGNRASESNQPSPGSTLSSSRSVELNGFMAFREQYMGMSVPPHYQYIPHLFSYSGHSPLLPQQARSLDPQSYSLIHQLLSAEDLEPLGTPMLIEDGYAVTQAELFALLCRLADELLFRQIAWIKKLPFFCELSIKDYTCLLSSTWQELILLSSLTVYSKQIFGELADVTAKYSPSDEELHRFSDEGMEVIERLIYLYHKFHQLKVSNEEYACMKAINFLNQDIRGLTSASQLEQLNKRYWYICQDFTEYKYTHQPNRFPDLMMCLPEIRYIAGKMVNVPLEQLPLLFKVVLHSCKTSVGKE

[3] = system: Panel NCI-60 (60 carcinoma cell lines); assay: Anticancer activity against human Panel NCI-60 (60 carcinoma cell lines) cells assessed as cell growth inhibition; type: functional
MDA-MB-231 = assay: Anticancer activity against human MDA-MB-231 cells assessed as cell growth inhibition
MCF7 = assay: Anticancer activity against human MCF7 cells assessed as cell growth inhibition

SMILES: COC(=O)C[C@@H]1NC(=O)c2cc(OCCCc3cc(C)cc(C)c3)c(NC(=O)c3cc(OC)c(OC)c(OC)c3)cc2NC1=O
- GI50 (LOX IMVI): > 50000 nM
- GI50 (HCT-116): > 50000 nM
- GI50 (A549): > 50000 nM
- GI50 (786-0): > 50000 nM
- GI50 (SF-295): > 50000 nM
- GI50 [1]: > 50000 nM

SMILES: COC(=O)C[C@@H]1NC(=O)c2cc(Oc3cc(C)cc(C)c3)c(NC(=O)c3cc(OC)cc(OC)c3)cc2NC1=O
- GI50 (LOX IMVI): 240 nM
- GI50 (HCT-116): 200 nM
- GI50 (A549): 150 nM
- GI50 (786-0): 150 nM
- GI50 (SF-295): 80 nM
- GI50 [1]: 240 nM

SMILES: CCN(CC)C(=O)C[C@H]1C(=O)Nc2cc(NC(=O)c3c(Cl)c(OC)c(OC)c(OC)c3Br)c(Oc3cc(C)cc(C)c3)cc2C(=O)N1C
- GI50 (LOX IMVI): 39 nM
- GI50 (HCT-116): 70 nM
- GI50 (A549): 74 nM
- GI50 (786-0): 87 nM
- GI50 (SF-295): 68 nM
- GI50 [1]: 68 nM

SMILES: COC(=O)C[C@@H]1NC(=O)c2cc(Oc3cc(C)cc(C)c3)c(NC(=O)c3ccc(OC)c(OC)c3OC)cc2NC1=O
- GI50 (LOX IMVI): > 50000 nM
- GI50 (HCT-116): > 50000 nM
- GI50 (A549): > 50000 nM
- GI50 (786-0): > 50000 nM
- GI50 (SF-295): > 50000 nM
- GI50 [1]: > 50000 nM

SMILES: COC(=O)C[C@@H]1NC(=O)c2cc(Oc3cc(C)cc(C)c3)c(NC(=O)c3cc(OC)c(OC)c(OC)c3)cc2NC1=O
- GI50 (LOX IMVI): 20 nM
- GI50 (HCT-116): 30 nM
- GI50 (A549): 70 nM
- GI50 (786-0): 70 nM
- GI50 (SF-295): 70 nM
- GI50 [1]: 50 nM

SMILES: O=C(CCCCCN1C(=O)c2ccccc2N(Cc2ccccc2)C(=O)[C@@H]1Cc1ccccc1)NO
- IC50 (NCI-H661): 6000 nM

SMILES: CCN(CC)C(=O)C[C@H]1C(=O)Nc2cc(NC(=O)c3cc(OC)c(OC)c(OC)c3)c(Oc3cc(C)cc(C)c3)cc2C(=O)N1CC
- GI50 (LOX IMVI): 134 nM
- GI50 (HCT-116): 145 nM
- GI50 (A549): 148 nM
- GI50 (786-0): 158 nM
- GI50 (SF-295): 118 nM
- GI50 [1]: 69 nM

SMILES: COC(=O)C[C@@H]1NC(=O)c2cc(C#Cc3cc(C)cc(C)c3)c(NC(=O)c3cc(OC)c(OC)c(OC)c3)cc2NC1=O
- GI50 (LOX IMVI): > 50000 nM
- GI50 (HCT-116): > 50000 nM
- GI50 (A549): > 50000 nM
- GI50 (786-0): > 50000 nM
- GI50 (SF-295): > 50000 nM
- GI50 [1]: > 50000 nM

SMILES: COC(=O)C[C@@H]1NC(=O)c2cc(OC)c(NC(=O)c3cc(OC)c(OC)c(OC)c3)cc2NC1=O
- GI50 (LOX IMVI): > 50000 nM
- GI50 (HCT-116): > 50000 nM
- GI50 (A549): > 50000 nM
- GI50 (786-0): > 50000 nM
- GI50 (SF-295): > 50000 nM
- GI50 [1]: > 50000 nM

SMILES: CCN(CC)C(=O)C[C@@H]1NC(=O)c2cc(Oc3cc(C)cc(C)c3)c(NC(=O)c3cc(OC)c(OC)c(OC)c3Br)cc2NC1=O
- GI50 (LOX IMVI): < 5 nM
- GI50 (HCT-116): > 5 nM
- GI50 (A549): < 5 nM
- GI50 (786-0): 7 nM
- GI50 (SF-295): < 5 nM
- GI50 [1]: < 5 nM

SMILES: COc1cc(C(=O)Nc2cc3c(cc2Oc2cc(C)cc(C)c2)C(=O)N[C@@H](CC(N)=O)C(=O)N3)cc(OC)c1OC
- GI50 (LOX IMVI): 350 nM
- GI50 (HCT-116): 790 nM
- GI50 (A549): 3970 nM
- GI50 (786-0): 3450 nM
- GI50 (SF-295): 2010 nM
- GI50 [1]: 1120 nM

SMILES: COC(=O)C[C@@H]1NC(=O)c2cc(Oc3cc(C)cc(C)c3)c(NCc3cc(OC)c(OC)c(OC)c3)cc2NC1=O
- GI50 (LOX IMVI): > 50000 nM
- GI50 (HCT-116): > 50000 nM
- GI50 (A549): > 50000 nM
- GI50 (786-0): > 50000 nM
- GI50 (SF-295): > 50000 nM
- GI50 [1]: > 50000 nM

SMILES: O=C1Nc2ccc(Br)cc2C(=O)N(Cc2ccccc2Sc2ccc(Cl)cc2)[C@@H]1Cc1ccccc1
- IC50 (A498): 5000 nM
- EC50 [2]: < 7000 nM

SMILES: COc1cc(C(=O)Nc2cc3c(cc2Oc2cc(C)cc(C)c2)C(=O)N[C@@H](CC(=O)N2CCN(C)CC2)C(=O)N3)cc(OC)c1OC
- GI50 (LOX IMVI): 90 nM
- GI50 (HCT-116): 140 nM
- GI50 (A549): 180 nM
- GI50 (786-0): 1570 nM
- GI50 (SF-295): 670 nM
- GI50 [1]: 1580 nM

SMILES: COC(=O)C[C@@H]1NC(=O)c2cc(Oc3ccc(OC)cc3)c(NC(=O)c3cc(OC)c(OC)c(OC)c3)cc2NC1=O
- GI50 (LOX IMVI): > 50000 nM
- GI50 (HCT-116): > 50000 nM
- GI50 (A549): > 50000 nM
- GI50 (786-0): > 50000 nM
- GI50 (SF-295): > 50000 nM
- GI50 [1]: > 50000 nM

SMILES: COC(=O)C[C@@H]1NC(=O)c2cc(Oc3ccc(F)cc3)c(NC(=O)c3cc(OC)c(OC)c(OC)c3)cc2NC1=O
- GI50 (LOX IMVI): > 50000 nM
- GI50 (HCT-116): > 50000 nM
- GI50 (A549): > 50000 nM
- GI50 (786-0): > 50000 nM
- GI50 (SF-295): > 50000 nM
- GI50 [1]: > 50000 nM

SMILES: COC(=O)C[C@@H]1NC(=O)c2cc(Oc3ccc(C)c(C)c3)c(NC(=O)c3cc(OC)c(OC)c(OC)c3)cc2NC1=O
- GI50 (LOX IMVI): 2550 nM
- GI50 (HCT-116): 2010 nM
- GI50 (A549): 1520 nM
- GI50 (786-0): 2400 nM
- GI50 (SF-295): 1010 nM
- GI50 [1]: 1910 nM

SMILES: CCOC(=O)C1NC(=O)c2cc(Oc3cc(C)cc(C)c3)c(NC(=O)c3cc(OC)c(OC)c(OC)c3)cc2NC1=O (stereo not given)
- GI50 (LOX IMVI): > 50000 nM
- GI50 (HCT-116): > 50000 nM
- GI50 (A549): > 50000 nM
- GI50 (786-0): > 50000 nM
- GI50 (SF-295): > 50000 nM
- GI50 [1]: > 50000 nM

SMILES: CCN(CC)C(=O)C[C@@H]1NC(=O)c2cc(Oc3cc(C)cc(C)c3)c(NC(=O)c3cc(OC)c(OC)c(OC)c3)cc2N(C)C1=O
- GI50 (LOX IMVI): > 50000 nM
- GI50 (HCT-116): > 50000 nM
- GI50 (A549): > 50000 nM
- GI50 (786-0): > 50000 nM
- GI50 (SF-295): > 50000 nM
- GI50 [1]: > 50000 nM

SMILES: CCc1nc(C[C@@H]2NC(=O)c3cc(Oc4cc(C)cc(C)c4)c(NC(=O)c4cc(OC)c(OC)c(OC)c4)cc3NC2=O)no1
- GI50 (LOX IMVI): 240 nM
- GI50 (HCT-116): 330 nM
- GI50 (A549): 270 nM
- GI50 (786-0): 660 nM
- GI50 (SF-295): 120 nM
- GI50 [1]: 360 nM

SMILES: O=C1Nc2ccccc2C(=O)N2C=C(c3ccc(Br)cc3)C[C@@H]12
- GI50 [3]: 7410 nM
- GI50 (A498): 510 nM

SMILES: COc1cc(C(=O)Nc2cc3c(cc2Oc2cc(C)cc(C)c2)C(=O)N[C@@H](Cc2nnc(C)o2)C(=O)N3)cc(OC)c1OC
- GI50 (LOX IMVI): 1280 nM
- GI50 (HCT-116): 1260 nM
- GI50 (A549): 1380 nM
- GI50 (786-0): 1420 nM
- GI50 (SF-295): 940 nM
- GI50 [1]: 1580 nM

SMILES: COC(=O)CC[C@@H]1NC(=O)c2cc(Oc3cc(C)cc(C)c3)c(NC(=O)c3cc(OC)c(OC)c(OC)c3)cc2NC1=O
- GI50 (LOX IMVI): 1920 nM
- GI50 (HCT-116): 2080 nM
- GI50 (A549): 1260 nM
- GI50 (786-0): 1860 nM
- GI50 (SF-295): 1100 nM
- GI50 [1]: 1200 nM

SMILES: C[C@H](c1ccc(Cl)cc1)N1C(=O)c2cc(I)ccc2N(CCCCC(=O)O)C(=O)[C@@H]1c1ccc(Cl)cc1
- IC50 (MDA-MB-231): 67000 nM
- IC50 (MCF7): 7000 nM

SMILES: COC(=O)C[C@@H]1NC(=O)c2cc(Oc3ccccc3)c(NC(=O)c3cc(OC)c(OC)c(OC)c3)cc2NC1=O
- GI50 (LOX IMVI): > 50000 nM
- GI50 (HCT-116): > 50000 nM
- GI50 (A549): > 50000 nM
- GI50 (786-0): > 50000 nM
- GI50 (SF-295): > 50000 nM
- GI50 [1]: > 50000 nM

SMILES: COC(=O)C[C@@H]1NC(=O)c2cc(OCc3ccccc3)c(NC(=O)c3cc(OC)c(OC)c(OC)c3)cc2NC1=O
- GI50 (LOX IMVI): > 50000 nM
- GI50 (HCT-116): > 50000 nM
- GI50 (A549): > 50000 nM
- GI50 (786-0): > 50000 nM
- GI50 (SF-295): > 50000 nM
- GI50 [1]: > 50000 nM

SMILES: COC(=O)C[C@@H]1NC(=O)c2cc(-c3cc(C)cc(C)c3)c(NC(=O)c3cc(OC)c(OC)c(OC)c3)cc2NC1=O
- GI50 (LOX IMVI): > 50000 nM
- GI50 (HCT-116): > 50000 nM
- GI50 (A549): > 50000 nM
- GI50 (786-0): > 50000 nM
- GI50 (SF-295): > 50000 nM
- GI50 [1]: > 50000 nM
